# Source: BindingDB's records for doi:10.1021/jm0203130 (Merck Research Laboratories, 2002)
# Molecular target: Integrin alpha-IIb/beta-3 (Homo sapiens, UniProt P08514+P05106)
# Experiment: Inhibition of integrin alphaIIb-beta3 in platelet aggregation assay
# Integrin alpha-IIb/beta-3, sequence (P05106 27-788 limits assumed): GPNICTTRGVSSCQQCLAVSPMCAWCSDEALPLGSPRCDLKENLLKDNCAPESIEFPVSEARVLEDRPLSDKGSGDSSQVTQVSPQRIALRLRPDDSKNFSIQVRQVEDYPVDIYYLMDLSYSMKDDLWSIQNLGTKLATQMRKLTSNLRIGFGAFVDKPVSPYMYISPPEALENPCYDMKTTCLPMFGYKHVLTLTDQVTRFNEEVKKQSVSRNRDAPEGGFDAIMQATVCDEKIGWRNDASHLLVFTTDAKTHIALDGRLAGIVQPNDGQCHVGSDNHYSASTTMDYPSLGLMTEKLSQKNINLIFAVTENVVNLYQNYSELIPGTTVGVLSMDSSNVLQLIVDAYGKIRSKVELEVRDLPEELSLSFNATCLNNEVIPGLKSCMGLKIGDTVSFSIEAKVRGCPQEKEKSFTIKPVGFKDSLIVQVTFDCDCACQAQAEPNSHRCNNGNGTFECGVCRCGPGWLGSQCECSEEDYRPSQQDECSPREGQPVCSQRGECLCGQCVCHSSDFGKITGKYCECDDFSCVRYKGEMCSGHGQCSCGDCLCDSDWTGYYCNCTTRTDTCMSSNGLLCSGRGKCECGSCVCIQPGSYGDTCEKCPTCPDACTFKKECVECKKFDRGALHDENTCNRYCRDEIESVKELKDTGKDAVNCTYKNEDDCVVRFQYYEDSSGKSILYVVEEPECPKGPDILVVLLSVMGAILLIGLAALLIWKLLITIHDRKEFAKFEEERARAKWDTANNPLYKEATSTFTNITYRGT
# Integrin alpha-IIb/beta-3, sequence (P08514 32-887 limits assumed): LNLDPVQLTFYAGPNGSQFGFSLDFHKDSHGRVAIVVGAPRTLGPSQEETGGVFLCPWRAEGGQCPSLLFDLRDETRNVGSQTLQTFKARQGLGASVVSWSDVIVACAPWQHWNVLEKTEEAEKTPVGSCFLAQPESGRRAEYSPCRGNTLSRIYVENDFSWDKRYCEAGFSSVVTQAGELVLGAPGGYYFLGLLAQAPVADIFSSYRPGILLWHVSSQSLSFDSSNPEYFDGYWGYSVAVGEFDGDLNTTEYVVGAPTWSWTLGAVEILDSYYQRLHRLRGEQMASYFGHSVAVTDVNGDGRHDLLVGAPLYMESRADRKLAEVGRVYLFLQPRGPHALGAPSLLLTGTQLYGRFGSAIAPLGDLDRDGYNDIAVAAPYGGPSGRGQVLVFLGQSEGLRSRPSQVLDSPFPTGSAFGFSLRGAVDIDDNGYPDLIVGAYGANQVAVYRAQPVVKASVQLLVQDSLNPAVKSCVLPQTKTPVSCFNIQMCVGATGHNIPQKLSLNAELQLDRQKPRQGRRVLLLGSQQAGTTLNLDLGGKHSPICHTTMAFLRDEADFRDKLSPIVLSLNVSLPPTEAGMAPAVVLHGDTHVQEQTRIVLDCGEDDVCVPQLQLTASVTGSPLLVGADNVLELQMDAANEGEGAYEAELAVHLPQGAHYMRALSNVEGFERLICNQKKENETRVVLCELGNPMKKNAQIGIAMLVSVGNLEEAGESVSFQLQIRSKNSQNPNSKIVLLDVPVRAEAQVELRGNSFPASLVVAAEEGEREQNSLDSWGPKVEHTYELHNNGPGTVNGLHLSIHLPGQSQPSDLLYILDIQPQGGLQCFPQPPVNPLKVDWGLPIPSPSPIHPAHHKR
# Integrin alpha-IIb/beta-3, sequence (P08514 891-1039 limits assumed): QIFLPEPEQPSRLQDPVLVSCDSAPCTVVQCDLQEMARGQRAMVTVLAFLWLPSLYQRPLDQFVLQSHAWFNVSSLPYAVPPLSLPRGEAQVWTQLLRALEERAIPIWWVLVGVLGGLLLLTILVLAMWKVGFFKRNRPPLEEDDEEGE
row,SMILES,IC50 [nM]
1,"O=C(O)C[C@H](NC(=O)CN1CCC(CCc2ccc3c(n2)NCCC3)C1=O)c1cccnc1 (some centres not stated) [3-(2-{2-Oxo-3-[2-(5,6,7,8-tetrahydro-[1,8]naphthyridin-2-yl)-ethyl]-pyrrolidin-1-yl}-acetylamino)-3-pyridin-3-yl-propionic acid]",> 10000
2,"CNc1cccc(CCOc2ccc3c(c2)CN(CC(F)(F)F)C(=O)[C@H](CC(=O)O)C3)n1 [[(S)-8-[2-(6-Methylamino-pyridin-2-yl)-ethoxy]-3-oxo-2-(2,2,2-trifluoro-ethyl)-2,3,4,5-tetrahydro-1H-benzo[c]azepin-4-yl]-acetic acid]",> 10000
3,"O=C(O)CCNC(=O)CNC(=O)CCCc1ccc2c(n1)NCCC2 [3-[2-(4-5,6,7,8-Tetrahydro-[1,8]naphthyridin-2-yl-butyrylamino)-acetylamino]-propionic acid]",> 10000
4,"O=C(O)C[C@H](NC(=O)CNC(=O)CCCc1ccc2c(n1)NCCC2)c1cccnc1 [(S)-3-Pyridin-3-yl-3-[2-(4-5,6,7,8-tetrahydro-[1,8]naphthyridin-2-yl-butyrylamino)-acetylamino]-propionic acid]",> 10000

# Now those with a lower IC50, led by results:
row,IC50 [nM],SMILES
1,260,"O=C(NC[C@H](NS(=O)(=O)c1ccccc1)C(=O)O)c1ccc(CCc2ccc3c(n2)NCCC3)cc1 [2-Benzenesulfonylamino-3-{4-[2-(5,6,7,8-tetrahydro-[1,8]naphthyridin-2-yl)-ethyl]-benzoylamino}-propionic acid]"
2,1600,Nc1cccc(CCc2ccc(C(=O)NC[C@H](NS(=O)(=O)c3ccc(I)cc3)C(=O)O)cc2)n1 [3-{4-[2-(6-Amino-pyridin-2-yl)-ethyl]-benzoylamino}-2-(4-iodo-benzenesulfonylamino)-propionic acid]
3,776,"O=C(O)C[C@H](NC(=O)CN1CCC(CCc2ccc3c(n2)NCCC3)C1=O)c1cnc2ccccc2c1 (some centres not stated) [3-(2-{2-Oxo-3-[2-(5,6,7,8-tetrahydro-[1,8]naphthyridin-2-yl)-ethyl]-pyrrolidin-1-yl}-acetylamino)-3-quinolin-3-yl-propionic acid]"
